In patent publication US9302999B2, “Substituted triazoles as herbicides” (E. I. DU PONT DE NEMOURS AND COMPANY, priority 2012, dated 2016):

Experiments:
Type in all cases: in vivo
[1] = tested on: foxtail, giant (giant foxtail, Setaria faberii); assay: Test A pre-/postemergence: foxtail, giant
Procedure, shortened: (§1)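 Compounds, formulated with surfactant in non-phytotoxic solvent, were applied as a directed soil spray preemergence and as postemergence sprays to 2–10 cm, one- to two-leaf seedlings grown in loam soil blended with sand; visual injury, 0–100, assessed ~10 days post-treatment against untreated controls.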

[2] = tested on: morningglory (Ipomoea spp.); assay: Test A pre-/postemergence: morningglory; settings: for Morningglory plant response rating: visual rating on 0 to 100 scale (0 no effect, 100 complete control), approximately ten days
Procedure, shortened: as §1

corn (Zea mays) = assay: Test A pre-/postemergence: corn
Procedure, shortened: as §1

[3] = tested on: sedge, umbrella (small-flower umbrella sedge Cyperus difformis); assay: Test B flooded paddy: sedge, umbrella; settings: Flood; 250 g ai/ha; applied to paddy water at 2-leaf stage; visually evaluated after 13 to 15 days
Procedure, shortened: (§2)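 Greenhouse assay lasting 13 to 15 days. Treatment was into water flooding pots 3 cm deep, at the 2-leaf stage, with that level sustained afterwards. Scores compare treated with control plants visually, 100 denoting complete control and 0 no effect; a dash marks no test result.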

[4] = tested on: ducksalad (Heteranthera limosa); assay: Test B flooded paddy: ducksalad; settings: Flood; 250 g ai/ha; applied to paddy water at 2-leaf stage; visually evaluated after 13 to 15 days
Procedure, shortened: as §2

[5] = tested on: ryegrass, Italian (Italian ryegrass, Lolium multiflorum); assay: Test C pre-/postemergence: ryegrass, Italian
Procedure, shortened: (§3)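 Visual injury scored 0–100 (100 = complete control) against untreated controls after 13–15 greenhouse days. Surfactant-containing solvent formulations applied either to soil after sowing (loam/sand) or over 1- to 4-leaf plants, 2–18 cm tall.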

[6] = tested on: johnsongrass (Sorghum halepense); assay: Test C pre-/postemergence: johnsongrass
Procedure, shortened: as §3

kochia (Kochia scoparia) = assay: Test C pre-/postemergence: kochia
Procedure, shortened: as §3

[7] = tested on: ragweed (common ragweed, Ambrosia elation); assay: Test C pre-/postemergence: ragweed
Procedure, shortened: as §3

soybean (Glycine max) = assay: Test C pre-/postemergence: soybean
Procedure, shortened: as §3

[8] = tested on: chickweed (common chickweed, Stellaria media); assay: Test C postemergence: chickweed
Procedure, shortened: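 Response values are visual ratings, 0 (no effect) to 100 (complete control), made by comparison with untreated controls 13 to 15 days after postemergence treatment of greenhouse-grown potted plants that were 2 to 18 cm high at spraying.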

[9] = Postemergence, 125 g ai/ha, 0 to 100 scale, 0 is no effect, 100 is complete control
[10] = Postemergence, 500 g ai/ha, visual rating on 0 to 100 scale (0 no effect, 100 complete control), approximately ten days
[11] = Preemergence, 125 g ai/ha, 0 to 100 scale where 0 is no effect and 100 is complete control
[12] = Preemergence, 500 g ai/ha, 0 to 100 scale (0 no effect, 100 complete control)
[13] = Postemergence, 31 g ai/ha, scale 0 to 100 (0 no effect, 100 complete control)
[14] = Postemergence, 62 g ai/ha, scale 0 to 100 (0 no effect, 100 complete control)
[15] = Postemergence, 125 g ai/ha, scale 0 to 100, 0 no effect, 100 complete control
[16] = Postemergence, 250 g ai/ha, scale 0 to 100
[17] = Preemergence, 31 g ai/ha, scale of 0 to 100, 0 is no effect, 100 is complete control
[18] = Preemergence, 62 g ai/ha, scale of 0 to 100, 0 is no effect, 100 is complete control
[19] = Preemergence, 125 g ai/ha, scale 0 to 100, 0 no effect, 100 complete control
[20] = Preemergence, 250 g ai/ha, scale 0 to 100, 0 no effect, 100 complete control
[21] = 62 g ai/ha, scale 0 to 100 (0 no effect, 100 complete control)
[22] = 125 g ai/ha, scale 0 to 100, 0 no effect, 100 complete control

For `CCc1nn(-c2ccc(C(F)(F)F)cc2)nc1Cc1ccnc(C(F)(F)F)c1` [Compound 155], the “Plant response rating, Foxtail, Giant” value [1, 9] was 90, the “Foxtail, Giant plant response rating” value [1, 10] was 100 and the “Plant response rating, Foxtail, Giant” value [1, 11] was 100. For the same compound, the “Plant response rating, Foxtail, Giant” value [1, 12] was 100, the “Plant response rating, Morningglory” value [2, 9] was 90 and the “Morningglory plant response rating” value ([2]; Postemergence, 500 g ai/ha) was 100. The “Plant response rating, Morningglory” value [2, 11] was 80, the “Plant response rating, Morningglory” value [2, 12] was 90 and the “Plant response rating, Corn” value (corn (Zea mays); [9]) was 40. The “Corn plant response rating” value (corn (Zea mays); [10]) was 70, the “Plant response rating, Corn” value (corn (Zea mays); [11]) was 60 and the “Plant response rating, Corn” value (corn (Zea mays); [12]) was 80. The “Plant response rating, Sedge, Umbrella (0 to 100 scale, 0 is no effect, 100 is complete control)” value [3] was 80, the “Plant response rating, Ducksalad (0 to 100 scale, 0 is no effect, 100 is complete control)” value [4] was 80 and the “Plant response rating, Ryegrass, Italian” value [5, 13] was 35. The “Plant response rating, Ryegrass, Italian” value [5, 14] was 45, the “Plant response rating, Ryegrass, Italian” value [5, 15] was 65 and the “Plant response rating, Ryegrass, Italian” value [5, 16] was 70. The “Plant response rating, Ryegrass, Italian” value [5, 17] was 35, the “Plant response rating, Ryegrass, Italian” value [5, 18] was 85 and the “Plant response rating, Ryegrass, Italian” value [5, 19] was 85. For the same compound, the “Plant response rating, Ryegrass, Italian” value [5, 20] was 90, the “Plant response rating, Johnsongrass” value [6, 13] was 20 and the “Plant response rating, Johnsongrass” value [6, 14] was 80. The “Plant response rating, Johnsongrass” value [6, 15] was 98, the “Plant response rating, Johnsongrass” value [6, 16] was 98 and the “Plant response rating, Johnsongrass” value [6, 17] was 80. The “Plant response rating, Johnsongrass” value [6, 18] was 90, the “Plant response rating, Johnsongrass” value [6, 19] was 90 and the “Plant response rating, Johnsongrass” value [6, 20] was 95. For the same compound, the “Plant response rating, Kochia” value (kochia (Kochia scoparia); [13]) was 90, the “Plant response rating, Kochia” value (kochia (Kochia scoparia); [14]) was 90 and the “Plant response rating, Kochia” value (kochia (Kochia scoparia); [15]) was 95. For the same compound, the “Plant response rating, Kochia” value (kochia (Kochia scoparia); [16]) was 95, the “Plant response rating, Ragweed” value [7, 13] was 80 and the “Plant response rating, Ragweed” value [7, 15] was 85. The “Plant response rating, Ragweed” value [7, 16] was 85, the “Plant response rating, Ragweed” value [7, 17] was 20 and the “Plant response rating, Ragweed” value [7, 18] was 40. The “Plant response rating, Ragweed” value [7, 19] was 85, the “Plant response rating, Ragweed” value [7, 20] was 95 and the “Plant response rating, Soybean” value (soybean (Glycine max); [13]) was 50. The “Plant response rating, Soybean” value (soybean (Glycine max); [14]) was 75, the “Plant response rating, Soybean” value (soybean (Glycine max); [15]) was 80 and the “Plant response rating, Soybean” value (soybean (Glycine max); [16]) was 80. For the same compound, the “Plant response rating, Soybean” value (soybean (Glycine max); [17]) was 0, the “Plant response rating, Soybean” value (soybean (Glycine max); [18]) was 35 and the “Plant response rating, Soybean” value (soybean (Glycine max); [19]) was 35. The “Plant response rating, Soybean” value (soybean (Glycine max); [20]) was 40, the “Plant response rating, Chickweed” value ([8]; 31 g ai/ha, scale 0 to 100 (0 no effect, 100 complete control)) was 50 and the “Plant response rating, Chickweed” value [8, 21] was 70. For the same compound, the “Plant response rating, Chickweed” value [8, 22] was 95 and the “Plant response rating, Chickweed” value ([8]; 250 g ai/ha, scale 0 to 100) was 100.
In the case of `COc1nn(-c2ccc(C(F)(F)F)cc2)nc1Cc1ccnc(C(F)F)c1` [Compound 138], the “Foxtail, Giant plant response rating” value [1, 9] is reported as 90, the “Foxtail, Giant plant response rating” value [1, 10] is reported as 90 and the “Plant response rating, Foxtail, Giant” value [1, 11] is reported as 100. For the same compound, the “Plant response rating, Foxtail, Giant” value [1, 12] was 100, the “Plant response rating, Morningglory” value [2, 9] was 100 and the “Morningglory plant response rating” value ([2]; Postemergence, 500 g ai/ha) was 100. The “Plant response rating, Morningglory” value [2, 11] was 70, the “Plant response rating, Morningglory” value [2, 12] was 90 and the “Corn plant response rating” value (corn (Zea mays); [9]) was 50. The “Corn plant response rating” value (corn (Zea mays); [10]) was 70, the “Plant response rating, Corn” value (corn (Zea mays); [11]) was 30 and the “Plant response rating, Corn” value (corn (Zea mays); [12]) was 60. The “Plant response rating, Sedge, Umbrella (0 to 100 scale, 0 is no effect, 100 is complete control)” value [3] was 90, the “Plant response rating, Ducksalad (0 to 100 scale, 0 is no effect, 100 is complete control)” value [4] was 90 and the “Plant response rating, Ryegrass, Italian” value [5, 13] was 40. The “Plant response rating, Ryegrass, Italian” value [5, 14] was 55, the “Plant response rating, Ryegrass, Italian” value [5, 15] was 60 and the “Plant response rating, Ryegrass, Italian” value [5, 16] was 75. For the same compound, the “Plant response rating, Ryegrass, Italian” value [5, 17] was 10, the “Plant response rating, Ryegrass, Italian” value [5, 18] was 40 and the “Plant response rating, Ryegrass, Italian” value [5, 19] was 70. For the same compound, the “Plant response rating, Ryegrass, Italian” value [5, 20] was 90, the “Plant response rating, Johnsongrass” value [6, 13] was 45 and the “Plant response rating, Johnsongrass” value [6, 14] was 45. The “Plant response rating, Johnsongrass” value [6, 15] was 45, the “Plant response rating, Johnsongrass” value [6, 16] was 95 and the “Plant response rating, Johnsongrass” value [6, 17] was 45. The “Plant response rating, Johnsongrass” value [6, 18] was 85, the “Plant response rating, Johnsongrass” value [6, 19] was 98 and the “Plant response rating, Johnsongrass” value [6, 20] was 100. For the same compound, the “Plant response rating, Kochia” value (kochia (Kochia scoparia); [13]) was 95, the “Plant response rating, Kochia” value (kochia (Kochia scoparia); [14]) was 95 and the “Plant response rating, Kochia” value (kochia (Kochia scoparia); [15]) was 98. For the same compound, the “Plant response rating, Kochia” value (kochia (Kochia scoparia); [16]) was 98, the “Plant response rating, Kochia” value (kochia (Kochia scoparia); [17]) was 55 and the “Plant response rating, Kochia” value (kochia (Kochia scoparia); [18]) was 65. For the same compound, the “Plant response rating, Kochia” value (kochia (Kochia scoparia); [19]) was 85, the “Plant response rating, Kochia” value (kochia (Kochia scoparia); [20]) was 90 and the “Plant response rating, Ragweed” value [7, 13] was 75. The “Plant response rating, Ragweed” value [7, 14] was 80, the “Plant response rating, Ragweed” value [7, 15] was 85 and the “Plant response rating, Ragweed” value [7, 16] was 85. The “Plant response rating, Ragweed” value [7, 17] was 40, the “Plant response rating, Ragweed” value [7, 18] was 45 and the “Plant response rating, Ragweed” value [7, 19] was 50. For the same compound, the “Plant response rating, Ragweed” value [7, 20] was 50, the “Plant response rating, Soybean” value (soybean (Glycine max); [13]) was 55 and the “Plant response rating, Soybean” value (soybean (Glycine max); [14]) was 70. For the same compound, the “Plant response rating, Soybean” value (soybean (Glycine max); [15]) was 80, the “Plant response rating, Soybean” value (soybean (Glycine max); [16]) was 80 and the “Plant response rating, Soybean” value (soybean (Glycine max); [17]) was 5. For the same compound, the “Plant response rating, Soybean” value (soybean (Glycine max); [18]) was 20, the “Plant response rating, Soybean” value (soybean (Glycine max); [20]) was 30 and the “Plant response rating, Chickweed” value [8, 21] was 80. For the same compound, the “Plant response rating, Chickweed” value [8, 22] was 95 and the “Plant response rating, Chickweed” value ([8]; 250 g ai/ha, scale 0 to 100) was 98.
